SMILES strings stand for the structures. Calls of active or inactive are those of the source. The calls are words filed in the database; no cut-off is given here. Bounds are passed on as bounds.

In one assay the target is Coagulation factor X (Homo sapiens, UniProt P00742). Put plainly: Inhibition of factor 10a.
Assay [1] can be described thus: Selectivity for thrombin over trypsin.
The subject of assay [2] is Platelet. Briefly: Inhibition of ADP-induced platelet aggregation in human platelet rich plasma at 50 uM. Type of assay: functional.
A further assay deals with Prothrombin (Homo sapiens, UniProt P00734).
Assay [3] has as its target Integrin alpha-IIb/beta-3 (Homo sapiens, UniProt P05106+P08514). Put plainly: Inhibition of fibrinogen binding to human platelet GPIIb/IIIa receptor.
A short description of assay [4]: Selectivity for thrombin over factor 10a.
Assay [5] relates to Platelet. Put plainly: Inhibition of ADP-induced platelet aggregation in human platelet rich plasma. Type of assay: functional, cell-free.

Integrin alpha-IIb/beta-3, sequence (P05106 27-788 limits assumed): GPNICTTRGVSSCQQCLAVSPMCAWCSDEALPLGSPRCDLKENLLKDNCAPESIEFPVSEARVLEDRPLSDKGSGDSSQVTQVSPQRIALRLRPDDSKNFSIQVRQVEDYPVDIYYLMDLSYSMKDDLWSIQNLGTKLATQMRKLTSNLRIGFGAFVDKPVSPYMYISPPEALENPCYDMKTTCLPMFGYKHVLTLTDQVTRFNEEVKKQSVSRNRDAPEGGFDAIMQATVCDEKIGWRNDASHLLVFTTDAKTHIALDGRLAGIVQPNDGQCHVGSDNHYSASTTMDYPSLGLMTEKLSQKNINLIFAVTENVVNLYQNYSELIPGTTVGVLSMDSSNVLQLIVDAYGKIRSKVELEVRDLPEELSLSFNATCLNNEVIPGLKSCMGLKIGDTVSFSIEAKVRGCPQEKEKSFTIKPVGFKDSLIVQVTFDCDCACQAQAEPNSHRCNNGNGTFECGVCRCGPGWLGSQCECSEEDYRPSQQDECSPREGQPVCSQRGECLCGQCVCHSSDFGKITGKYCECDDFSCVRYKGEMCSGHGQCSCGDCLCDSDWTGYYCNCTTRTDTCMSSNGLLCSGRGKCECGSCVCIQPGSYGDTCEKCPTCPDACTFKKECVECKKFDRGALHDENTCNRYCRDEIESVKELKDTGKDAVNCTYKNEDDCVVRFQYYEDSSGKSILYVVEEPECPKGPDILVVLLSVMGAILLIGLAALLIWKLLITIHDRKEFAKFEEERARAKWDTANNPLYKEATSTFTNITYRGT
Integrin alpha-IIb/beta-3, sequence (P08514 32-887 limits assumed): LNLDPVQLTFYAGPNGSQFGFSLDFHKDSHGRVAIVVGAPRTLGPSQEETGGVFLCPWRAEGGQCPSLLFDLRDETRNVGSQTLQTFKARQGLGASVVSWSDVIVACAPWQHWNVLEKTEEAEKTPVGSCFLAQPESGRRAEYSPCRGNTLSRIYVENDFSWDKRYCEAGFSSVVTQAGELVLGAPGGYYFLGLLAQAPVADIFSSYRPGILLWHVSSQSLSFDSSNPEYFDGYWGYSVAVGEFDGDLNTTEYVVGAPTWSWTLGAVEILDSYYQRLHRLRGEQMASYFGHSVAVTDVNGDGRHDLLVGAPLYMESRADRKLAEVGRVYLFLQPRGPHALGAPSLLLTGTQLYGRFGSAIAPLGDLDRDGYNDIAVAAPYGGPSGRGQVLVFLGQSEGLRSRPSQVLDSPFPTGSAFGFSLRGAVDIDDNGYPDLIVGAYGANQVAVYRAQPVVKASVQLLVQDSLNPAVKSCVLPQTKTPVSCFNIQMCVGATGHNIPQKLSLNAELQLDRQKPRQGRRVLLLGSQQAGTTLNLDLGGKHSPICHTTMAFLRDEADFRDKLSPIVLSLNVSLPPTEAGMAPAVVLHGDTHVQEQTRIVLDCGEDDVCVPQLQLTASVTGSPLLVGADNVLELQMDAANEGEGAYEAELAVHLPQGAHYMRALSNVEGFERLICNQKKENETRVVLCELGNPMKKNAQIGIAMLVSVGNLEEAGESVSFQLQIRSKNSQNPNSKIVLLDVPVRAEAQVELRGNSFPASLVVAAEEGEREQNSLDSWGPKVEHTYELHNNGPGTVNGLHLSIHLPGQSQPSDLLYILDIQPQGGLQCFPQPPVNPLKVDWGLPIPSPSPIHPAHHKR
Integrin alpha-IIb/beta-3, sequence (P08514 891-1039 limits assumed): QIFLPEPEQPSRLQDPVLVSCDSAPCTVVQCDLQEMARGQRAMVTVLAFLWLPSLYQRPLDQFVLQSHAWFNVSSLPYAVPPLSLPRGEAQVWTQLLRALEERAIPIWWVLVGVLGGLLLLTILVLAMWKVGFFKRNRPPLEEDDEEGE
Coagulation factor X, sequence (P00742 41-179 limits assumed): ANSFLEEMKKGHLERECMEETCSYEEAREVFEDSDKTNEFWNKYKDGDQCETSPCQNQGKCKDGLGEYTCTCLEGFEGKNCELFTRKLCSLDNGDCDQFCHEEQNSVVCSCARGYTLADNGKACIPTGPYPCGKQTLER
Coagulation factor X, sequence (P00742 235-488 limits assumed): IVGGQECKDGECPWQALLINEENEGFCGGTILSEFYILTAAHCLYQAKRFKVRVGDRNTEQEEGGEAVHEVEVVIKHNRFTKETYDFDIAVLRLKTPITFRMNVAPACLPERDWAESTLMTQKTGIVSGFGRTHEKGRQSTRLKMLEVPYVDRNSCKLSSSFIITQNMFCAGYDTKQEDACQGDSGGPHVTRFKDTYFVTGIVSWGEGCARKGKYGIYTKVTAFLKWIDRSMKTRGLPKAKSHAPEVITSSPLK

As a reminder, the Ki is a dissociation constant, usually derived from enzyme kinetics or from competition with a known ligand. Low values mean tighter binding, high ones weaker binding. As a reminder, the inhibition is the percentage by which the read-out fell short of the control. A lower inhibition goes with little suppression. Broadly, the IC50 is the concentration at which inhibition is half-maximal. For the compound `CCOC(=O)CCC(=O)Nc1ccc2c(c1)OC(C)(COc1ccc(C(=N)N)cc1)CN2C` (stereo unspecified), the values for the Ki at Coagulation factor X and on Prothrombin were 74.7 µM and 16.9 µM, respectively. The Selectivity ratio was 0.4 in assay [1] and 4.4 in assay [4]. In the assay with Platelet [2], this compound gave an inhibition at 50 µM of 15%. The compound further had an IC50 in assay [3] of 14 µM.

For `CCOC(=O)CN(Cc1ccccc1)c1ccc2c(c1)N(C)CC(C)(COc1ccc(C(=N)N)cc1)O2` (stereo unspecified), the Ki on Coagulation factor X was 11.9 µM. In the assay on Platelet [2], this compound registered an inhibition at 50 µM of 13%. Besides, the IC50 in assay [3] was 0.73 µM.

As to `CN1CC(C)(COc2ccc(C(=N)N)cc2)Oc2cc(NC(=O)C(Cc3ccccc3)C(=O)O)ccc21` (stereo unspecified), in the assay with Platelet [5], the IC50 was 24.9 µM. This compound came in with a Ki on Prothrombin of 5.5 µM.

For `CCOC(=O)C(=O)N(Cc1ccccc1)c1ccc2c(c1)N(C)CC(C)(COc1ccc(C(=N)N)cc1)O2` (stereo unspecified), the inhibition constant Ki on Coagulation factor X worked out at 16 µM. Moreover, the inhibition at 50 µM in the assay with Platelet [2] was found to be 24%. The same compound showed an IC50 in assay [3] of 1.2 µM.

Regarding `CCOC(=O)CCC(=O)N(Cc1ccccn1)c1ccc2c(c1)OC(C)(COc1ccc(C(=N)N)cc1)CN2C` (stereo unspecified), the values for the Ki on Coagulation factor X and on Prothrombin were 11.8 µM and 0.025 µM, respectively. The Selectivity ratio worked out at 56 in assay [1] and 472 in assay [4]. In addition, the inhibition at 50 µM with Platelet [2] was 15%. This compound also registered an IC50 in assay [3] of 11.3 µM.

For `CN1C(=O)C(OCc2ccc(C(=N)N)cc2)Oc2cc(C(=O)N(CC(=O)O)c3ccccc3)ccc21` (stereo unspecified), the Ki on Coagulation factor X amounted to 49.6 µM; on Prothrombin it was 1.76 µM. For the same compound, the Selectivity ratio was found to be 9.4 in assay [1] and 28 in assay [4]. Also, the inhibition at 50 µM with Platelet [2] was 24%. This compound yielded an IC50 in assay [3] greater than 100 µM.

On to `CN1CC(C)(COc2ccc(C(=N)N)cc2)Oc2cc(NC(=O)CCC(=O)O)ccc21` (stereo unspecified), for which the Ki came to 33.8 µM on Coagulation factor X and 5.16 µM on Prothrombin. The results for the Selectivity ratio in assay [1] and in assay [4] were 0.3 and 6.6, respectively. Further, the IC50 with Platelet [5] was found to be 36.7 µM; in assay [3], 1.69 µM.

For the compound `CCOC(=O)CN(C(=O)c1ccc2c(c1)OC(OCc1ccc(C(=N)N)cc1)C(=O)N2C)c1ccccc1` (stereo unspecified), the Ki at Coagulation factor X was found to be 43.1 µM; on Prothrombin, 3.98 µM. Besides, the figures for the Selectivity ratio in assay [1] and in assay [4] were 4.6 and 11, respectively. In the assay with Platelet [2], this compound yielded an inhibition at 50 µM of 10%. In assay [3], this compound gave an IC50 of 28.4 µM.

Regarding `CCOC(=O)CCC(=O)N(Cc1ccccc1)c1ccc2c(c1)N(C)CC(C)(COc1ccc(C(=N)N)cc1)O2` (stereo unspecified), the Ki on Coagulation factor X stood at 27.7 µM. Moreover, in the assay on Platelet [2], the result was inactive. The IC50 in assay [3] is greater than 100 µM.

As to `CN1CC(C)(COc2ccc(C(=N)N)cc2)Oc2cc(N(Cc3ccccc3)C(=O)C(=O)O)ccc21` (stereo unspecified), the affinity on Coagulation factor X, expressed as Ki, was 16.6 µM. Also, 50 µM produced 26% inhibition in the assay with Platelet [2]. Besides, the IC50 in assay [3] was greater than 100 µM.

Consider `CN1C(=O)C(OCc2ccc(C(=N)N)cc2)Oc2cc(C(=O)N[C@@H](CC(=O)O)c3ccccc3)ccc21` (stereo partly specified), for which the Ki was greater than 200 µM at Coagulation factor X and 14.9 µM at Prothrombin. This compound also gave an IC50 in assay [3] of 1.64 µM.

For the compound `CCOC(=O)CCC(=O)N(Cc1ccccc1)c1ccc2c(c1)OC(C)(COc1ccc(C(=N)N)cc1)CN2C` (stereo unspecified), the figures for the Ki at Coagulation factor X and on Prothrombin were 18 µM and 0.06 µM, respectively. Besides, the Selectivity ratio in assay [1] came to 19; in assay [4], 300. Also, the outcome with Platelet [2] was inactive. Besides, the IC50 in assay [3] came out at 29.3 µM.

Take `CN1CC(C)(COc2ccc(C(=N)N)cc2)Oc2cc(NC(=O)c3ccccc3)ccc21` (stereo unspecified): the Ki was 12.1 µM on Coagulation factor X and 5 µM on Prothrombin. Moreover, the Selectivity ratio is 0.3 in assay [1] and 2.4 in assay [4]. Also, the inhibition at 50 µM in the assay with Platelet [2] is 21%. This compound displayed an IC50 in assay [3] of 2.85 µM.

Consider `CN1CC(C)(COc2ccc(C(=N)N)cc2)Oc2ccc(N(Cc3ccccc3)C(=O)C(=O)O)cc21` (stereo unspecified), for which the Ki at Coagulation factor X worked out at 31.7 µM. In addition, the IC50 in assay [3] was greater than 100 µM.

Turning to `CCOC(=O)CN(C(=O)c1ccccc1)c1ccc2c(c1)OC(C)(COc1ccc(C(=N)N)cc1)CN2C` (stereo unspecified), the Ki on Coagulation factor X came out at 9.59 µM; at Prothrombin, 0.156 µM. Further, the Selectivity ratio in assay [1] is 12; in assay [4], 47. This compound also yielded an inhibition at 50 µM with Platelet [2] of 21%. The compound further yielded an IC50 in assay [3] of 1.78 µM.

For the compound `CCOC(=O)CN(Cc1ccccc1)c1ccc2c(c1)OC(C)(COc1ccc(C(=N)N)cc1)CN2C` (stereo unspecified), the Ki on Coagulation factor X amounted to 2.67 µM; at Prothrombin, 0.38 µM. The values for the Selectivity ratio in assay [1] and in assay [4] were 4.5 and 7, respectively. The inhibition at 50 µM in the assay on Platelet [2] came to 19%. The compound further showed an IC50 in assay [3] of 1.45 µM.

As for `CCOC(=O)C(C(=O)Nc1ccc2c(c1)OC(OCc1ccc(C(=N)N)cc1)C(=O)N2C)c1ccccc1` (stereo unspecified), the inhibition constant Ki at Coagulation factor X came to 50.3 µM; on Prothrombin, 9.89 µM. Also, the Selectivity ratio in assay [1] was 1.5; in assay [4], 5.1. The compound further displayed an inhibition at 50 µM in the assay on Platelet [2] of 23%. Further, in assay [3], the IC50 came to 2.44 µM.

Turning to `CCOC(=O)C(Cc1ccccc1)C(=O)Nc1ccc2c(c1)N(C)CC(C)(COc1ccc(C(=N)N)cc1)O2` (stereo unspecified), the Ki on Coagulation factor X is 29.5 µM; on Prothrombin, 4.93 µM. For the same compound, the Selectivity ratio in assay [1] came out at 0.6; in assay [4], 6. In addition, the inhibition at 50 µM with Platelet [2] was 8%. Also, the IC50 in assay [3] was 36.5 µM.

In turn, `CCOC(=O)C(=O)N(Cc1ccccc1)c1ccc2c(c1)OC(C)(COc1ccc(C(=N)N)cc1)CN2C` (stereo unspecified) yielded a Ki on Coagulation factor X of 112 µM. In the assay with Platelet [2], this compound registered an inhibition at 50 µM of 21%. Moreover, in assay [3], the IC50 is 2 µM.

As to `CN1C(=O)C(OCc2ccc(C(=N)N)cc2)Oc2cc(C(=O)NCCC(=O)O)ccc21` (stereo unspecified), the Ki on Coagulation factor X was determined as 112 µM; at Prothrombin, 118 µM. In addition, the Selectivity ratio in assay [1] turned out to be 0.2; in assay [4], 1. In the assay with Platelet [2], this compound returned an inhibition at 50 µM of 23%. The compound further registered an IC50 in assay [3] of 15.2 µM.

`CCOC(=O)C[C@H](NC(=O)c1ccc2c(c1)OC(OCc1ccc(C(=N)N)cc1)C(=O)N2C)c1ccccc1` (stereo partly specified): the Ki on Coagulation factor X amounted to 54.6 µM. In assay [3], this compound showed an IC50 of 24.6 µM.

In the case of `COC(=O)C(Cc1ccccc1)C(=O)Nc1ccc2c(c1)OC(C)(COc1ccc(C(=N)N)cc1)CN2C` (stereo unspecified), the Ki on Coagulation factor X was determined as 35.4 µM; on Prothrombin, 2.86 µM. Moreover, the Selectivity ratio in assay [1] worked out at 1.7; in assay [4], 12. Moreover, the inhibition at 50 µM in the assay on Platelet [2] turned out to be 21%. In assay [3], this compound showed an IC50 of 9.11 µM.

In turn, `CN1CC(C)(COc2ccc(C(=N)N)cc2)Oc2cc(N(Cc3ccccc3)C(=O)CCC(=O)O)ccc21` (stereo unspecified) had a Ki on Coagulation factor X of 29.7 µM. The inhibition at 50 µM with Platelet [2] came to 14%. For the same compound, the IC50 in assay [3] is greater than 100 µM.

As for `CN1C(=O)C(OCc2ccc(C(=N)N)cc2)Oc2cc(C(=O)Nc3ccccc3)ccc21` (stereo unspecified), the results for the Ki on Coagulation factor X and on Prothrombin were 31.6 µM and 24.2 µM, respectively. Also, the Selectivity ratio in assay [1] was found to be 0.7; in assay [4], 1.3. Besides, the inhibition at 50 µM with Platelet [2] came out at 19%. This compound also gave an IC50 in assay [3] of 12.1 µM.

The values above are taken from ChEMBL document CHEMBL1140066, “3,4-Dihydro-2H-1,4-benzoxazine derivatives combining thrombin inhibitory and glycoprotein IIb/IIIa receptor antagonistic activity as a novel class of antithrombotic compounds with dual function” (J Med Chem, 2008).
